The values that follow come from US10947274B1 (priority 2018, dated 2021).

Data set [1] is classed as physicochemical.
The target in data set [2] is human α9α10 nicotinic acetylcholine receptor (nAChR) (human) (UniProt Q9UGM1). The experiment in a line: cell-based or functional assay.
Data set [3] concerns the target α7 nAChR (Rattus norvegicus, UniProt Q05941). The settings on record: cited from earlier work.

Sequence of human α9α10 nicotinic acetylcholine receptor (nAChR) (human) (Q9UGM1 23-479, chain 1 of 2): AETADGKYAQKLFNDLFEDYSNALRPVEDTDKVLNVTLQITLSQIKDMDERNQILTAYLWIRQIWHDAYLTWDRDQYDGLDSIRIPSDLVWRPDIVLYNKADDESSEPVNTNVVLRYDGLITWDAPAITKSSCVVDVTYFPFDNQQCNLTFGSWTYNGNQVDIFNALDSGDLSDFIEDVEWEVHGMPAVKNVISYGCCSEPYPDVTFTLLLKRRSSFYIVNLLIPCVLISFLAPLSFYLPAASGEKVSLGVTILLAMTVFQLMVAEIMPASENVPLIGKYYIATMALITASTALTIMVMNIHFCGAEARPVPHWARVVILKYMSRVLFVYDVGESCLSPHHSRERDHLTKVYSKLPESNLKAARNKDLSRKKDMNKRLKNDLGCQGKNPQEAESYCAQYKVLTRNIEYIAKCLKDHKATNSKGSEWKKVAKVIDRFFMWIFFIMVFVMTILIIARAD
Sequence of human α9α10 nicotinic acetylcholine receptor (nAChR) (human) (Q9GZZ6 25-450, chain 2 of 2, further chain): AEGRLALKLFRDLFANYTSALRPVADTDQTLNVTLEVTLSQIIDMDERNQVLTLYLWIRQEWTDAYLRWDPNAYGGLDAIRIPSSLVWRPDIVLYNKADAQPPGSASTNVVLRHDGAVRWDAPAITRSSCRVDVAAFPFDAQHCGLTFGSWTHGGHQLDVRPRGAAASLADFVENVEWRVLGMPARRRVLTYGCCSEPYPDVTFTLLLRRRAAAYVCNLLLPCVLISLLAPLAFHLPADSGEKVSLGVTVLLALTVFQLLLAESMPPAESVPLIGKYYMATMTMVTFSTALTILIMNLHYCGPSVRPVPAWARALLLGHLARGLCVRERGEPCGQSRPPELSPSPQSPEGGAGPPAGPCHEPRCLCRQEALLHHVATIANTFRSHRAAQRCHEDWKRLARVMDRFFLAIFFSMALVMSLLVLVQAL
Sequence of α7 nAChR (Q05941 23-502 limits assumed): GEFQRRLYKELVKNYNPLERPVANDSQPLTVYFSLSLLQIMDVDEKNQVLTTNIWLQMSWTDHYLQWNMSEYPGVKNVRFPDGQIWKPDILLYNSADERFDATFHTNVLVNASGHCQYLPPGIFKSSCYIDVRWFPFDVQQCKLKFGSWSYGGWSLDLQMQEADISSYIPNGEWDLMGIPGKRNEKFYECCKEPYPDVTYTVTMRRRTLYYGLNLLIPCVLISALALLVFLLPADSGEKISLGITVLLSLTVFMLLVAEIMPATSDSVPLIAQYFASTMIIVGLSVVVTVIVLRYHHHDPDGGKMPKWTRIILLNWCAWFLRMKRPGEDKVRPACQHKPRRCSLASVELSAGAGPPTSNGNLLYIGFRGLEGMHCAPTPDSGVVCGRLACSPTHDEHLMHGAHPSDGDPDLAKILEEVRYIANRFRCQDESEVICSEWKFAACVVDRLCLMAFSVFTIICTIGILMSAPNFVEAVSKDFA

GCCTDPRC(Cit)(I-3-Y)QCY [RgIA4]: the “area under the curve, % of the total” value in data set [1] (at 8 h) worked out at 26.3%. Besides, the “share of intact (globular) peptide over time” value in data set [1] (pH 7.3) is on record as “minority component”.

Take [C3Pen;14R]RgIA5 (peptide): in data set [2], the IC50 (nM), block of the acetylcholine response, voltage-clamped Xenopus oocytes came out at 0.5 nM.

As to α-conotoxin ImI, the IC50 in data set [3] was 69.3 ± 15.5 nM.
